Measurements from patent US20260043031A1, “COMPOSITIONS AND METHODS FOR INHIBITING ADENYLATE CYCLASE 9 (AC9)” (INSTITUT DE CARDIOLOGIE DE MONTRÉAL, priority 2022, published 2026).

Assays:
Assay type in all cases: cell-based, human
LDLr = experiment: Western blot of LDLr protein in HepG2 cells; details: for LDLr protein expression in human HepG2 cells (% of siScramble): HepG2 transfected with siRNA, Western blot, actin loading control, n=8
Protocol: (§1) HepG2 (hepatocellular carcinoma) cells were growth in Eagle's minimum essential medium (EMEM). The medium was supplemented with 10% FBS, 100 units/ml penicillin, and 100 μg/ml streptomycin. Cells were cultured in 5% CO2 at 37° C. and were harvested once a week with trypsin-EDTA. For experiments, cells were trypsinized, seeded, and cultured at least for 3 days prior to the assays.
(§2) HepG2 cells were transfected with ADCY9, SREBP2, LDLr or scramble siRNA in the presence of Lipofectamine RNAiMAX in Opti-MEM for 72 h unless otherwise stated.
(§3) For Western blotting, cells were washed with cold PBS and then scraped and lysed in ice-cold lysis buffer (50 mM Tris, pH 7.5, 150 mM NaCl, 1% Triton X-100, 0.1% SDS, 0.5% sodium deoxycholate, 1 mM PMSF, and protease inhibitor cocktail). Lysate was microcentrifugated for 20 min at 4° C. and supernatant was assessed for cell proteins. Proteins ([…]) were separated by sodium dodecyl sulfate-polyacrylamide gel electrophoresis (SDS-PAGE) followed by Western blotting to PVDF membrane.
Protein expression is represented as a percentage of the control, siScramble. n=8. Paired t-test: *=p≤0.05; **=p≤0.01; and ***=p≤0.001, relative to siScramble.

ABCA1 = experiment: Western blot of ABCA1 protein in HepG2 cells; details: HepG2, siAC9 plus 2 μM H89, 24 h
Protocol: as §1, §2, §3

HepG2 cells [1] = experiment: 3H-CE-LDL cell association assay; details: HepG2, siAC9 plus 2 μM H89, 24 h
Protocol: as §1, §2

HepG2 cells [2] = experiment: Cellular cholesterol efflux toward apo A-I
Protocol: as §1, §2
Cells were labeled in EMEM containing 2 μCi/ml [1,2-^3H]cholesterol plus 1% FBS for 24 h at 37° C. Then, cells were equilibrated with EMEM containing 0.2% BSA for 18 h at 37° C. with or without H89 or GSK-2033. An efflux assay was performed in the absence or presence of 10 μg/ml of apo A-I. At the end of the incubation, the medium was harvested and cells were solubilized. Medium and cells were counted for radioactivity in a […]. The percentage of efflux was calculated by subtracting the radioactive counts in the medium in the absence of cholesterol acceptors from the radioactive counts in the presence of acceptor and then dividing by the sum of the radioactive counts in the medium plus the cell fraction.

AC9 = experiment: Western blot of AC9 protein after siRNA transfection of HepG2 cells; details: HepG2 transfected with siRNA, actin loading control, n=8
Protocol: as §1, §2, §3
Results were obtained by Western blotting and actin was used as a loading control. Protein expression is represented as a percentage of the control, siScramble. n=8. Paired t-test: *=p≤0.05; **=p≤0.01; and ***=p≤0.001, relative to siScramble.

[3] = HepG2, siAC9 plus 2 μM H89, 24 h

Compound	AC9 protein expression in human HepG2 cells (% of siScramble) (AC9) [% ***]	LDLr protein expression in human HepG2 cells (% of siScramble) (LDLr)	further results
O=S(=O)(NCCNC/C=C/c1ccc(Br)cc1)c1cccc2cnccc12 [H89]	–	–	LDLr protein expression, effect on siAC9-mediated increase (LDLr; [3]): reversed; ABCA1 protein expression, effect on siAC9-mediated increase (ABCA1): reversed; 3H-CE-LDL association in siAC9-treated cells (HepG2 cells [1]): reduction; cholesterol efflux in siAC9-treated cells (HepG2 cells [2]; [3]): not
ADCY9-2: siRNA, sense SEQ ID NO: 5 CGAAACAGGAAUAGAAGAAUU, antisense SEQ ID NO: 6 UUCUUCUAUUCCUGUUUCGUU; targets ADCY9 mRNA Exon 10 (listed as RNA, chemistry not fully specified)	16	122% **	–
ADCY9-3: siRNA, sense SEQ ID NO: 7 AGGAAGAGGUCAUAAAGAAUU, antisense SEQ ID NO: 8 UUCUUUAUGACCUCUUCCUUU; targets ADCY9 mRNA Exon 5-6 (listed as RNA, chemistry not fully specified)	17	126% *	–
CC(C)c1c(C(=O)Nc2ccccc2)c(-c2ccccc2)c(-c2ccc(F)cc2)n1CC[C@@H](O)C[C@@H](O)CC(=O)O [atorvastatin, reference compound]	–	–	LDLr protein expression, combined treatment (LDLr; HepG2, 300 μM exogenous cAMP plus 5 μM atorvastatin): increased
ADCY9-4: siRNA, sense SEQ ID NO: 9 GCACCAAGAUCCAGAGCAUUU, antisense SEQ ID NO: 10 AUGCUCUGGAUCUUGGUGCUU; targets ADCY9 mRNA Exon 10 (listed as RNA, chemistry not fully specified)	15	150% **	–
Cc1cc(C)c(S(=O)(=O)N(Cc2ccc(-c3cccc(S(C)(=O)=O)c3)cc2)Cc2ccc(C(F)(F)F)o2)c(C)c1 [GSK-2033]	–	–	ABCA1-mediated cholesterol efflux, effect on siAC9-mediated increase (HepG2 cells [2]; HepG2, siAC9 plus 5 μM GSK-2033, 24 h): significantly reduce
ADCY9-1: siRNA, sense SEQ ID NO: 3 CGAAAUGGAAGAUGGGAAAUU, antisense SEQ ID NO: 4 UUUCCCAUCUUCCAUUUCGUU; targets ADCY9 mRNA Exon 2 (listed as RNA, chemistry not fully specified)	24	131% **	–
ADCY9-ID1039: siRNA, sense SEQ ID NO: 1 CCUGAUGAAAGAUUACUUUTT, antisense SEQ ID NO: 2 AAAGUAAUCUUUCAUCAGGCT; targets ADCY9 mRNA Exon 5 (chemistry not fully specified)	15	123% *	–
